Laboratory results as given in patent publication US20240109912A1, “TRICYCLIC PYRIMIDINES AS CYCLIN-DEPENDENT KINASE 7 (CDK7) INHIBITORS” (JANSSEN PHARMACEUTICA NV, priority 2020, published 2024).
Several values for one entry are separate records, joined by “and”; a condition that tells them apart may be missing. Equal entries are not always repeated. Where two headings read alike, the source gives them in different places.

How the values were obtained:
[1] = test system: RNA polymerase II Serine 5 phosphorylation in A549 cells overexpressing CDK7 mutant (C312S); assay: Imaging-based cellular RNA PolII Ser5 phosphorylation assay in A549 cells overexpressing CDK7-mutant (C312S); type: cell-based, human; conditions: for IC50: Homo sapiens, A549, A549 cells overexpressing CDK7 mutant (C312S), read-out: CDK7_ A549 mutant hCDK7(pIC50) (converted); for CDK7_ A549 mutant hCDK7(pIC50): A549 cells overexpressing CDK7 mutant (C312S)
Description: Data were calculated and analyzed in Phaedra.
From this an IC50 value can be obtained.
In parallel this assay was performed in A549 cells overexpressing CDK7-mutant (C312S) to evaluate the effect of the covalent bond on potency and to screen for potential off-target effects. Mutation of Cysteine to Serine (C312S), a less nucleophilic amino acid, prevents CDK7 inhibitors from covalently binding to CDK7 and from inhibiting CDK7 activity in an irreversible manner. A stably transduced A549 cell pool was generated that overexpresses CDK7 mutant (C312S), but also expresses endogenous CDK7-WT. Covalent binders targeting the cysteine at position 312 will show a shift in potency in A549 cells overexpressing mutant C312S CDK7.

[2] = test system: RNA polymerase II Serine 5 phosphorylation (CDK7) in A549 cells
[3] = molecular target: CDK7/cyclinH/MAT1 trimeric complex (Homo sapiens (Human), UniProt P50613); assay: In vitro CDK7 assay, potency of irreversible covalent inhibitors (kinact/KI); conditions: for Ki: CDK7 (20 nM enz.) (KI, μM); for CDK7 (20 nM enz.) (kinact, s^−1) / CDK7 (20 nM enz.) (kinact/ KI, M^−1*s^−1) / Ki: 20 nM enz.; for kinact: read-out: CDK7 (20 nM enz.) (kinact, s^−1), 20 nM enz.
Chain of CDK7/cyclinH/MAT1 trimeric complex (P50613 whole entry): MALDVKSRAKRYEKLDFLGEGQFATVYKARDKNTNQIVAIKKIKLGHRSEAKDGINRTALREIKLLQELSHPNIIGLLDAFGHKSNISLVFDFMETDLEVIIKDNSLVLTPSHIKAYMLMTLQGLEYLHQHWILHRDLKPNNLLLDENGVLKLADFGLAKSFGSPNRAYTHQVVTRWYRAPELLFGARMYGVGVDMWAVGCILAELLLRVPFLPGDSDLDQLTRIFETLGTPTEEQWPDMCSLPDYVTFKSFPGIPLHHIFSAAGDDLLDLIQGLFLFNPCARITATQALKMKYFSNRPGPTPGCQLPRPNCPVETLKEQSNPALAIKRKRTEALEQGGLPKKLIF
Chain of CDK7/cyclinH/MAT1 trimeric complex (P51946 whole entry partner): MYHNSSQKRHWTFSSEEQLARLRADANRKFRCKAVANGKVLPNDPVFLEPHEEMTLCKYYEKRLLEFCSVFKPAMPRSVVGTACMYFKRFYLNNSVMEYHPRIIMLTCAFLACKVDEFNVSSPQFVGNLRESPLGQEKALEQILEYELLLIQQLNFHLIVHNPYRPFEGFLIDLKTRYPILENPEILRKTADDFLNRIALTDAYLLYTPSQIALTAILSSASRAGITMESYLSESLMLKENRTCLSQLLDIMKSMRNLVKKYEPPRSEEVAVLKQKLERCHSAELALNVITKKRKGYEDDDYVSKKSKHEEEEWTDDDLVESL
Chain of CDK7/cyclinH/MAT1 trimeric complex (P51948 whole entry partner): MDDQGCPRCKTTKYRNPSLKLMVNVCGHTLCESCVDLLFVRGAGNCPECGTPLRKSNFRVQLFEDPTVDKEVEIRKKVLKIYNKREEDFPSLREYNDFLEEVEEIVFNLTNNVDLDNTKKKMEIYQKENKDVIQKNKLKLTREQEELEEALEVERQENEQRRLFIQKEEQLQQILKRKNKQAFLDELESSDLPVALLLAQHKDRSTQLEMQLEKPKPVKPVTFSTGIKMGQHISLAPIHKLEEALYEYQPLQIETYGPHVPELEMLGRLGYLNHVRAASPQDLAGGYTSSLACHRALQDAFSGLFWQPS

Structure (SMILES)	IC50 [1] [µM]	IC50 [2] [µM]	CDK7_ A549 mutant hCDK7(pIC50) [1]	also measured
CC#CC(=O)N1CC(N2C3CCC2CC(c2cc(C)c4c(c2)Nc2ncnc(N5CCS(=O)(=O)CC5)c2[C@@H](C)O4)C3)C1 (mixture of isomers) [compound 182]	6.03	~0.0724		
CC#CC(=O)N1CC(N2C3CCC2CC(c2cc(C)c4c(c2)Nc2ncnc(N5CCS(=O)(=O)CC5)c2[C@@H](C)O4)C3)C1 (mixture of isomers) [compound 183]		0.347	<5	
CC#CC(=O)N1CC(N2CC(c3cc(C)c4c(c3)Nc3ncnc(N5CCS(=O)(=O)CC5)c3[C@@H](C)O4)C2)C(C)(C)C1 (mixture of isomers) [compound 184]	> 10	0.186		
C=CC(=O)N1CC[C@@H](N2CC(c3cc4c(c(C5CC5)c3)O[C@@H](C)c3c(ncnc3N3CCS(=O)(=O)CC3)N4)C2)C1 (single isomer, unassigned) [compound 98]	> 10	0.347		
C=CC(=O)N1CC[C@H](N2CC(c3cc4c(c(C5CC5)c3)O[C@@H](C)c3c(ncnc3N3CCS(=O)(=O)CC3)N4)C2)C1 (single isomer, unassigned) [compound 99]	> 10	~0.794		
C=CC(=O)N1CC(N2CC(c3cc(C)c4c(c3)Nc3ncnc(-c5cnn(C)c5)c3[C@H](C)O4)C2)C1 (single isomer, unassigned) [compound 108]	> 10	> 10		
C=CC(=O)N1CC[C@H](N2CCC(c3cc(C)c4c(c3)Nc3ncnc(N5CCS(=O)(=O)CC5)c3CO4)CC2)C1 (single isomer, unassigned) [compound 115]	> 10		<5	CDK7 (20 nM enz.) (kinact, s^−1) [3]: 5.98e-05 s⁻¹; CDK7 (20 nM enz.) (kinact/ KI, M^−1*s^−1) [3]: 1377.97 M⁻¹ s⁻¹; Ki [3]: 0.0595 µM and 0.0434 µM; kinact [3]: 7.64e-05 s⁻¹; kinact/KI ([3]; read-out: CDK7 (20 nM enz.) (kinact/ KI, M^−1*s^−1), 20 nM enz.): 1280 M⁻¹ s⁻¹
C=CC(=O)N1CC[C@H](N2CC(c3cc(C)c4c(c3)Nc3ncnc(N5CCS(=O)(=O)CC5)c3[C@@H](C)O4)C2)C1 (single isomer, unassigned) [compound 117]	> 10		<5	CDK7 (20 nM enz.) (kinact, s^−1) [3]: 8.4e-05 s⁻¹ and 4.63e-05 s⁻¹; CDK7 (20 nM enz.) (kinact/ KI, M^−1*s^−1) [3]: 1546.72 M⁻¹ s⁻¹ and 2895.79 M⁻¹ s⁻¹ and 2153.89 M⁻¹ s⁻¹; Ki [3]: 0.034 µM and 0.029 µM and 0.0215 µM; kinact [3]: 5.26e-05 s⁻¹; kinact/KI ([3]; read-out: CDK7 (20 nM enz.) (kobs/[I], M^−1*s^−1), 20 nM enz.): 800 M⁻¹ s⁻¹
C=CC(=O)N1CC[C@@H](N2CC(c3cc(C)c4c(c3)Nc3ncnc(N5CCS(=O)(=O)CC5)c3[C@@H](C)O4)C2)C1 (single isomer, unassigned) [compound 119]	> 10		4.95	CDK7 (20 nM enz.) (kinact, s^−1) [3]: 6.1e-05 s⁻¹ and 4.27e-05 s⁻¹; CDK7 (20 nM enz.) (kinact/ KI, M^−1*s^−1) [3]: 1923.49 M⁻¹ s⁻¹ and 1433.61 M⁻¹ s⁻¹ and 1881.64 M⁻¹ s⁻¹; Ki [3]: 0.0249 µM and 0.0426 µM and 0.0227 µM; kinact [3]: 4.79e-05 s⁻¹
CC#CC(=O)N1CC[C@H](N2CC(c3cc(C)c4c(c3)Nc3ncnc(N5CCS(=O)(=O)CC5)c3[C@H](C)O4)C2)C1 (single isomer, unassigned) [compound 129]	> 10		<5	
CC#CC(=O)N1CC[C@@H](N2CC(c3cc(C)c4c(c3)Nc3ncnc(N5CCS(=O)(=O)CC5)c3[C@H](C)O4)C2)C1 (single isomer, unassigned) [compound 131]	> 10		<5	
CC#CC(=O)N1CC(N2CCC(c3cc4c(c(C)n3)O[C@H](C)c3c(ncnc3N3CCS(=O)(=O)CC3)N4)CC2)C1 (single isomer, unassigned) [compound 139]	> 10			CDK7 (20 nM enz.) (kinact, s^−1) [3]: 6.2e-05 s⁻¹; Ki [3]: 0.135 µM and 0.0466 µM; kinact [3]: 5.63e-05 s⁻¹
CC#CC(=O)N1CC[C@H](N2CC(c3cc(C)c4c(c3)Nc3ncnc(N5CCS(=O)(=O)CC5)c3[C@@H](C)O4)C2)C1 [compound 128]	> 10		<5	
CC#CC(=O)N1CC[C@@H](N2CC(c3cc(C)c4c(c3)Nc3ncnc(N5CCS(=O)(=O)CC5)c3[C@@H](C)O4)C2)C1 [compound 130]	> 10			
